# According to patent US6914122B2 (priority 2000, dated 2005):
# pEC50, pKi: −log10 of the molar value. *1 amine or outer side, *2 acyl side, *3 side chain or, on linkers, in order; H or OH if unused. Where a SMILES comes first, the peptide text is derived from it. Bridges are numbered along the chain shown (N, C = ends). [ ]: non-standard residue; d: D form. Heptanedioyl = O=C(CCCCCC(=O)[*:2])[*:1]; Adipoyl = O=C(CCCCC(=O)[*:2])[*:1]; Glutaryl = O=C(CCCC(=O)[*:2])[*:1]; X1 = CCCC(N[*:1])C(=O)C(=O)[*:2]; Chg = N[C@H](C(=O)O)C1CCCCC1; Phg = N[C@H](C(=O)O)c1ccccc1; Suc = O=C(CCC(=O)[*:2])[*:1]
# Biological target: T1, HCV serine protease (subtype 1b, 1bNS4A21-32GS-GS NS 3-81 I17K) in HeLa/Huh7 cells (Hepatitis C virus genotype 1b, UniProt P26663, I1043K)
# T1 construct: 1bNS4A21-32GS-GS NS 3-81 I17K; expressed in transfected cells; host or cells: HeLa/Huh7 cells
# Experiment: Cell bioassay: HCV serine protease cell-based trans-cleavage assay
# Design: species or system Hepatitis C virus (subtype 1b)
row,Compound,pEC50
1,CCCC(NC(=O)[C@@H]1Cc2cccc(c2)Oc2ccc(cc2)CCC(=O)N[C@@H](C2CCCCC2)C(=O)O1)C(=O)C(=O)NCC(=O)N[C@H](C(=O)N(C)C)c1ccccc1 (stereo partly shown) [Example 35],4.70
2,CCCC(NC(=O)C1Cc2cccc(c2)OCCCCCCC(=O)NC(C2CCCCC2)C(=O)O1)C(=O)C(=O)NCC(=O)N[C@H](C(=O)N(C)C)c1ccccc1 (stereo partly shown) [Example 36],5.05

# Biological target: Recombinant heterodimeric HCV NS3/NS4A protease (strain 1a) (Hepatitis C virus genotype 1a, UniProt P27958)
# Experiment: biochemical
# Design: species or system HCV (strain 1a)
row,Compound,pKi
1,CCCC(NC(=O)[C@@H]1Cc2cccc(c2)Oc2ccc(cc2)CCC(=O)N[C@@H](C2CCCCC2)C(=O)O1)C(=O)C(=O)NCC(=O)N[C@H](C(=O)N(C)C)c1ccccc1 (stereo partly shown) [Example 35],4.00 to 5.96
2,CCCC(NC(=O)C1Cc2cccc(c2)OCCCCCCC(=O)NC(C2CCCCC2)C(=O)O1)C(=O)C(=O)NCC(=O)N[C@H](C(=O)N(C)C)c1ccccc1 (stereo partly shown) [Example 36],4.00 to 5.96
3,CCCC(NC(=O)[C@@H]1CCCCNC(=O)CCC(=O)N[C@H](CC(=O)O)C(=O)N[C@@H](C2CCCCC2)C(=O)N1)C(=O)C(=O)NCC(=O)N[C@H](C(N)=O)c1ccccc1 (stereo partly shown) [Example 45] ([dD][Chg]K[X1]G[Phg]-NH2; linker N-3 via Suc),4.00 to 5.96
4,CCCC(NC(=O)[C@@H]1CCCCNC(=O)CCCC(=O)N[C@H](CC(=O)O)C(=O)N[C@@H](C2CCCCC2)C(=O)N1)C(=O)C(=O)NCC(=O)N[C@H](C(N)=O)c1ccccc1 (stereo partly shown) [Example 46] ([dD][Chg]K[X1]G[Phg]-NH2; linker N-3 via Glutaryl),4.00 to 5.96
5,CCCC(NC(=O)[C@@H]1CCCCNC(=O)CCC(=O)N[C@H](CCC(=O)O)C(=O)N[C@@H](C2CCCCC2)C(=O)N1)C(=O)C(=O)NCC(=O)N[C@H](C(N)=O)c1ccccc1 (stereo partly shown) [Example 47] ([dE][Chg]K[X1]G[Phg]-NH2; linker N-3 via Suc),4.00 to 5.96
6,CCCC(NC(=O)[C@@H]1CCCCNC(=O)CCCC(=O)N[C@H](CCC(=O)O)C(=O)N[C@@H](C2CCCCC2)C(=O)N1)C(=O)C(=O)NCC(=O)N[C@H](C(N)=O)c1ccccc1 (stereo partly shown) [Example 48] ([dE][Chg]K[X1]G[Phg]-NH2; linker N-3 via Glutaryl),4.00 to 5.96
7,CCCC(NC(=O)[C@@H]1CCCCNC(=O)CCC(=O)NCC(=O)N[C@@H](C2CCCCC2)C(=O)N1)C(=O)C(=O)NCC(=O)N[C@H](C(N)=O)c1ccccc1 (stereo partly shown) [Example 49] (G[Chg]K[X1]G[Phg]-NH2; linker N-3 via Suc),4.00 to 5.96
8,CCCC(NC(=O)[C@@H]1CCCCNC(=O)CCCC(=O)NCC(=O)N[C@@H](C2CCCCC2)C(=O)N1)C(=O)C(=O)NCC(=O)N[C@H](C(N)=O)c1ccccc1 (stereo partly shown) [Example 50] (G[Chg]K[X1]G[Phg]-NH2; linker N-3 via Glutaryl),4.00 to 5.96
9,CCCC(NC(=O)[C@@H]1CCCCNC(=O)CCC(=O)N[C@@H](C2CCCCC2)C(=O)N1)C(=O)C(=O)NCC(=O)N[C@H](C(N)=O)c1ccccc1 (stereo partly shown) [Example 51] ([Chg]K[X1]G[Phg]-NH2; linker N-2 via Suc),4.00 to 5.96
10,CCCC(NC(=O)[C@@H]1CCCCNC(=O)CCCCC(=O)N[C@@H](C2CCCCC2)C(=O)N1)C(=O)C(=O)NCC(=O)N[C@H](C(N)=O)c1ccccc1 (stereo partly shown) [Example 52] ([Chg]K[X1]G[Phg]-NH2; linker N-2 via Adipoyl),6.00 to 9.00
11,CCCC(NC(=O)[C@@H]1CCCCNC(=O)CCCCCC(=O)N[C@@H](C2CCCCC2)C(=O)N1)C(=O)C(=O)NCC(=O)N[C@H](C(N)=O)c1ccccc1 (stereo partly shown) [Example 53] ([Chg]K[X1]G[Phg]-NH2; linker N-2 via Heptanedioyl),6.00 to 9.00
